From patent US5326774A, “Pharmaceutical preparation of antihypertensive, antianginal, antiarrhythmic and antiglaucomic action” (priority 1992, dated 1994)
Several values for one entry are separate records, joined by “and”; a condition that tells them apart may be missing. Equal values may be shown once. Read-outs that look alike come from different tables or passages of the source.

Experiments:
[1] = molecular target: T1, β1-adrenoceptor (Rattus norvegicus, UniProt P18090); experiment: Inhibition of isadrin's positive chronotropic effect, i.v., anesthetized rats; format: in vivo; settings: rat, iv, read-out: Dosage inhibiting isadrin's positive chronotropism by 50% (ED50)
T1 construct: positive chronotropic and depressor effects in the anesthetized rats; from tissue; host or cells: whole living rat (heart rate response to isadrin); endogenous receptor
T1 sequence (P18090 whole entry): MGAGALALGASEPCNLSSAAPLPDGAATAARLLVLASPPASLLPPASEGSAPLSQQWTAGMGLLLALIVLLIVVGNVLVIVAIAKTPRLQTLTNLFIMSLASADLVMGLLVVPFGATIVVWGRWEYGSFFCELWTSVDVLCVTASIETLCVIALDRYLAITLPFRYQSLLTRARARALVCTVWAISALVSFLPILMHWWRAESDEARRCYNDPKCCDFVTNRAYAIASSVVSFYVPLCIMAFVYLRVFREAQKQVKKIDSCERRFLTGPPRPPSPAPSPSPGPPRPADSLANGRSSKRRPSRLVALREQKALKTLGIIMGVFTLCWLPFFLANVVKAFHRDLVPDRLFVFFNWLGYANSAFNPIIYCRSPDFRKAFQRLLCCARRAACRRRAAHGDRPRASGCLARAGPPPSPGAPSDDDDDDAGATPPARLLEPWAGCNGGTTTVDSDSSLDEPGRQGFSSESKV

[2] = molecular target: T2, β2-adrenoceptor (Rattus norvegicus, UniProt P10608); experiment: Inhibition of isadrin's depressor effect, i.v., anesthetized rats; format: in vivo; settings: rat, iv, read-out: Dosage inhibiting isadrin's depressor effect by 50%, ED50
T2 construct: positive chronotropic and depressor effects in the anesthetized rats; from tissue; host or cells: whole living rat (blood pressure response to isadrin); endogenous receptor
T2 sequence (P10608 whole entry): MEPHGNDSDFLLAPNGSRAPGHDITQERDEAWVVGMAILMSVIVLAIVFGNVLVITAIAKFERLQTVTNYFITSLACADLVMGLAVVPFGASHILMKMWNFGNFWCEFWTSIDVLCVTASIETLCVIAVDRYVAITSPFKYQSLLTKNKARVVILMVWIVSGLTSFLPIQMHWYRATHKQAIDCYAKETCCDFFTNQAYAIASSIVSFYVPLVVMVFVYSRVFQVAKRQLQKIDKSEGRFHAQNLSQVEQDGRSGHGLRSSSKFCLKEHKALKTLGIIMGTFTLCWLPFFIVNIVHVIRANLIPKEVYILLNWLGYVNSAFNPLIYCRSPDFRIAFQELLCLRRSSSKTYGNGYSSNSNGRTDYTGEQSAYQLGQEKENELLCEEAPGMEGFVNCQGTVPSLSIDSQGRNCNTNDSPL

[3] = system: mesaton-initiated pressor effect; experiment: Mesaton-initiated pressor effect in anesthetized rats; format: in vivo, rat; settings: for effect on mesaton pressor effect: 3 mg/kg i.v.; for suppression of mesaton pressor effect: 10 mg/kg i.v., average
[4] = system: arterial pressure; experiment: Hypotensive activity in anesthetized cats, i.v.; format: in vivo, cat
[5] = system: electrically induced ventricular fibrillation; experiment: Threshold of electrically induced ventricular fibrillation in anesthetized cats; format: in vivo, cat
[6] = system: strophantin-induced arrhythmia; format: in vivo, guinea pig
[7] = system: coronary vessels; experiment: Coronary vessel dilatation and myocardial perfusion in anesthetized rats; format: in vivo, rat; settings: 0.1 mg/kg i.v. (compound of the invention)
Excerpt: The coronarodilative effect of the compound according to the invention is not associated with its β- and α-adrenoceptor blocking activity and its influence on the systemic perfusion pressure and pump function of the heart. […]

[8] = system: vascular regions; experiment: Labeled microsphere method: cardiac output distribution in normotensive rats; format: in vivo, rat
[9] = system: vascular regions; experiment: Labeled microsphere method in rats with renovascular hypertension; format: in vivo, rat
[10] = system: arterial pressure; experiment: Arterial pressure and heart rate in conscious normotensive rats, oral; format: in vivo, rat; settings: 150 mg/kg
[11] = system: arterial pressure; experiment: Antihypertensive effect in rats with renovascular hypertension; format: in vivo, rat; settings: same conditions
Procedure: . In rats suffering from renovascular hypertension the compound of the invention in the dosage of 10 mg/kg (injected intramuscularly) lowered with confidence the arterial pressure (from 137±3 to 117±5 mm of Hg column) 30 minutes after being administered. The 2-week course of the administration of the compound according to the invention (10 mg/kg 1 time a day) caused the antihypertensive effect to be enhanced. By the end of the second week the arterial pressure was 110±8.6 mm Hg. […]

[12] = system: ventricular fibrillation; experiment: Ventricular fibrillation during acute coronary occlusion and reperfusion in anesthetized dogs; format: in vivo, dog; settings: for Ventricular fibrillation during acute occlusion and reperfusion: single animals
[13] = system: intraocular tension of intact rabbit eyes; settings: 1% solution
Procedure: The effects of the compound according to the invention on intraocular tension and hydrodynamics of the eye was tested in 28 chinchilla rabbits with body weight of 2.5-3.5 kg.
The left animal eyes were control wherein using the same procedure a diluent was instilled.

[14] = in vivo; settings: mouse, iv
Excerpt: LD50 values were estimated by using the Litchfield-Wilckoxon method.

[15] = system: intraocular tension; experiment: Clinical test in 108 patients with glaucoma resistant to conventional therapy; settings: human, in vivo
Procedure: The preparation of the invention was tested on 108 patients with different cases of glaucoma resistant to the conventional antiglaucomic therapy. […] A long-term resetting for more than 1 month of intraocular tension was attained in 76% of patients.

[16] = β-adrenoceptor blocking doses, normotensive rats

CC(CCc1ccccc1)NCC(O)c1ccc(O)c(C(N)=O)c1 (stereo not shown) [Labetalol, labetalol]
ED50 [1]: 0.7 ± 0.05 mg/kg | ED50 [2]: 3.3 ± 0.2 mg/kg | effect on mesaton pressor effect [3]: did not change | suppression of mesaton pressor effect [3]: 47% | ED20 ([4]; Felis catus, iv, anesthetized cats, read-out: Dose resulting in lowering of arterial pressure by 20%, ED20): 1 ± 0.09 mg/kg | minimal effective dose ([4]; Felis catus, iv, cats, read-out: dosage from which arterial pressure lowered): 0.1 mg/kg | hypotensive effect compared with compound of the invention ([4]; from 0.1 mg/kg): less pronounced and prolonged effect | threshold of electrically induced ventricular fibrillation ([5]; 1 mg/kg): did not change | threshold of electrically induced ventricular fibrillation ([5]; 5 mg/kg): increased considerably this threshold | value of increasing threshold compared with propranolol and oxprenolol ([5]; 5 mg/kg): higher | Arrhythmogenic dose of strophantin as compared with control: extrasystoles ([6]; 0.3 mg/kg i.v.): 101% | Dose of strophantin as compared with control: ventricular fibrillation ([6]; 0.3 mg/kg i.v.): 113% | Arrhythmogenic dose of strophantin as compared with control: extrasystoles ([6]; 1.0 mg/kg i.v.): 127% | Dose of strophantin as compared with control: ventricular fibrillation ([6]; 1.0 mg/kg i.v.): 131% | Lethal dose of strophantin as compared with control: animal death ([6]; 1.0 mg/kg i.v.): 128% | Arrhythmogenic dose of strophantin as compared with control: extrasystoles ([6]; 3.0 mg/kg i.v.): 136% | Dose of strophantin as compared with control: ventricular fibrillation ([6]; 3.0 mg/kg i.v.): 137% | Lethal dose of strophantin as compared with control: animal death ([6]; 3.0 mg/kg i.v.): 132% | coronary vessel dilatation / myocardial perfusion [7]: did not lead to the dilatation of coronary vessels | nature of vasodilating effect ([8]; dosages to block α-adrenoceptors): slight change of vasodilating nature | most sensible vessels [8, 16]: the vessels of skeletal muscles, testicles, spleen, kidneys and adrenals | vasodilating properties [8, 16]: exhibits vasodilating properties | vasodilating properties [9]: shows vasodilating properties

C=CCOc1ccccc1OCC(O)CNC(C)C (stereo not shown) [Oxprenolol, oxprenolol]
ED50 [1]: 0.26 ± 0.025 mg/kg | ED50 [2]: 0.055 ± 0.005 mg/kg | effect on mesaton pressor effect [3]: did not change | suppression of mesaton pressor effect [3]: 10% | threshold of electrically induced ventricular fibrillation ([5]; 1 mg/kg): did not change | threshold of electrically induced ventricular fibrillation ([5]; 5 mg/kg): increased considerably this threshold | Arrhythmogenic dose of strophantin as compared with control: extrasystoles ([6]; guinea pig, in vivo): 105% and 120% and 110% | Dose of strophantin as compared with control: ventricular fibrillation ([6]; guinea pig, in vivo): 101% and 110% and 121% | Lethal dose of strophantin as compared with control: animal death ([6]; guinea pig, in vivo): 102% and 112%

CC(C)NCC(O)COc1cccc2ccccc12 (stereo not shown) [Propranolol, propranolol]
arterial pressure [10]: small influence on arterial pressure | heart rate [10]: decreased the heart rate slightly | antihypertensive efficacy [11]: low efficacy | threshold of electrically induced ventricular fibrillation ([5]; 5 mg/kg): increased considerably this threshold | Arrhythmogenic dose of strophantin as compared with control: extrasystoles ([6]; guinea pig, in vivo): 92.7% and 110% | Dose of strophantin as compared with control: ventricular fibrillation ([6]; guinea pig, in vivo): 97.9% and 106.3% and 120% | prevention of ventricular fibrillation in temporary coronary occlusion ([12]; 1 mg/kg i.v.): the same effect | Ventricular fibrillation during acute occlusion and reperfusion ([12]; 10 min after injection): R | Ventricular fibrillation during acute occlusion and reperfusion ([12]; 60 min after injection): R | coronary vessel dilatation / myocardial perfusion [7]: unfavourable effect on transmural, myocardial perfusion | Average decrease of intraocular tension OD, M ± m ([13]; 2 hours): 2.6 ± 0.3 ram of Hg column | Average decrease of intraocular tension OD, M ± m ([13]; 4 hours): 2.2 ± 0.2 ram of Hg column

CC(C)NCC(O)COc1cccc2[nH]ccc12 (stereo not shown) [Pindolol, pindolol, reference compound]
ED50 [1]: 0.025 ± 0.002 mg/kg | ED50 [2]: 0.02 ± 0.002 mg/kg | threshold of electrically induced ventricular fibrillation ([5]; dosages tested): no effect | LD50 at 72 h [14]: 29 mg/kg

CC(C)(C)NC[C@H](O)COc1nsnc1N1CCOCC1 [thymolol]
mechanism of ocular hypotensive effect [15]: associated not only with inhibition of intraocular liquid secretion, but with improvement of its outflow
